Data as given in patent US20220281848A1, “PYRAZOLE-SUBSTITUTED PYRROLIDINONES AS HERBICIDES” (FMC Corporation, priority 2019, published 2022).

Test system: plants
Experiment: Test D post-emergence, other plants of Tables D2 and D4
Type: in vivo
Conditions: for damage to plant (100=total damage to plant; 0=no damage to plant), ABUTH / damage to plant (100=total damage to plant; 0=no damage to plant), AMARE / damage to plant (100=total damage to plant; 0=no damage to plant), BIDPI / damage to plant (100=total damage to plant; 0=no damage to plant), BRAPL / damage to plant (100=total damage to plant; 0=no damage to plant), CYPES / damage to plant (100=total damage to plant; 0=no damage to plant), DIGSA / damage to plant (100=total damage to plant; 0=no damage to plant), ECHCG / damage to plant (100=total damage to plant; 0=no damage to plant), ELEIN / damage to plant (100=total damage to plant; 0=no damage to plant), EPHHL / damage to plant (100=total damage to plant; 0=no damage to plant), GLXMA / damage to plant (100=total damage to plant; 0=no damage to plant), IPOHE / damage to plant (100=total damage to plant; 0=no damage to plant), ORYSA / damage to plant (100=total damage to plant; 0=no damage to plant), PANMI / damage to plant (100=total damage to plant; 0=no damage to plant), SETFA / damage to plant (100=total damage to plant; 0=no damage to plant), SIDSP / damage to plant (100=total damage to plant; 0=no damage to plant), SORVU: post-emergence
Summary of the method: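 Damage was rated visually from 0 (none) to 100 (total), at 20 DAA for pre-emergence and 15 d for post-emergence. Plants grew from safener-treated seed in a glasshouse at 24/18° C. or 20/16° C. day/night, 65% humidity, watered twice daily.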

SMILES: CCn1nc([C@@H]2CN(C)C(=O)[C@H]2C(=O)Nc2cccc(F)c2F)c2cccc(F)c21 [Compound 14]
- STEME damage rating (100=total damage to plant; 0=no damage to plant) (STEME, "Cereals" Postemergent, Rates 500, evaluated after 15 d): 70
- VERPE damage rating (100=total damage to plant; 0=no damage to plant) ("Cereals" Postemergent, Rates 130, evaluated after 15 d): 50
- VERPE damage rating (100=total damage to plant; 0=no damage to plant) ("Cereals" Postemergent, Rates 250, evaluated after 15 d): 50
- VERPE damage rating (100=total damage to plant; 0=no damage to plant) ("Cereals" Postemergent, Rates 500, evaluated after 15 d): 60
- damage to plant (100=total damage to plant; 0=no damage to plant), ABUTH (rate 130, evaluated after 15 d): 0
- damage to plant (100=total damage to plant; 0=no damage to plant), ABUTH (rate 250, evaluated after 15 d): 0
- damage to plant (100=total damage to plant; 0=no damage to plant), ABUTH (rate 500, evaluated after 15 d): 10
- damage to plant (100=total damage to plant; 0=no damage to plant), AMARE (rate 130, evaluated after 15 d): 0
- damage to plant (100=total damage to plant; 0=no damage to plant), AMARE (rate 250, evaluated after 15 d): 0
- damage to plant (100=total damage to plant; 0=no damage to plant), AMARE (rate 500, evaluated after 15 d): 30
- damage to plant (100=total damage to plant; 0=no damage to plant), BIDPI (rate 130, evaluated after 15 d): 10
- damage to plant (100=total damage to plant; 0=no damage to plant), BIDPI (rate 250, evaluated after 15 d): 20
- damage to plant (100=total damage to plant; 0=no damage to plant), BIDPI (rate 500, evaluated after 15 d): 30
- damage to plant (100=total damage to plant; 0=no damage to plant), BRAPL (rate 130, evaluated after 15 d): 80
- damage to plant (100=total damage to plant; 0=no damage to plant), BRAPL (rate 250, evaluated after 15 d): 70
- damage to plant (100=total damage to plant; 0=no damage to plant), BRAPL (rate 500, evaluated after 15 d): 80
- damage to plant (100=total damage to plant; 0=no damage to plant), CYPES (rate 130, evaluated after 15 d): 0
- damage to plant (100=total damage to plant; 0=no damage to plant), CYPES (rate 250, evaluated after 15 d): 0
- damage to plant (100=total damage to plant; 0=no damage to plant), CYPES (rate 500, evaluated after 15 d): 0
- damage to plant (100=total damage to plant; 0=no damage to plant), DIGSA (rate 130, evaluated after 15 d): 60
- damage to plant (100=total damage to plant; 0=no damage to plant), DIGSA (rate 250, evaluated after 15 d): 70
- damage to plant (100=total damage to plant; 0=no damage to plant), DIGSA (rate 500, evaluated after 15 d): 70
- damage to plant (100=total damage to plant; 0=no damage to plant), ECHCG (rate 250, evaluated after 15 d): 80
- damage to plant (100=total damage to plant; 0=no damage to plant), ECHCG (rate 500, evaluated after 15 d): 80
- damage to plant (100=total damage to plant; 0=no damage to plant), ELEIN (rate 130, evaluated after 15 d): 0
- damage to plant (100=total damage to plant; 0=no damage to plant), ELEIN (rate 250, evaluated after 15 d): 0
- damage to plant (100=total damage to plant; 0=no damage to plant), ELEIN (rate 500, evaluated after 15 d): 0
- damage to plant (100=total damage to plant; 0=no damage to plant), EPHHL (rate 130, evaluated after 15 d): 20
- damage to plant (100=total damage to plant; 0=no damage to plant), EPHHL (rate 250, evaluated after 15 d): 30
- damage to plant (100=total damage to plant; 0=no damage to plant), EPHHL (rate 500, evaluated after 15 d): 50
- damage to plant (100=total damage to plant; 0=no damage to plant), GLXMA (rate 130, evaluated after 15 d): 0
- damage to plant (100=total damage to plant; 0=no damage to plant), GLXMA (rate 250, evaluated after 15 d): 0
- damage to plant (100=total damage to plant; 0=no damage to plant), GLXMA (rate 500, evaluated after 15 d): 0
- damage to plant (100=total damage to plant; 0=no damage to plant), IPOHE (rate 130, evaluated after 15 d): 0
- damage to plant (100=total damage to plant; 0=no damage to plant), IPOHE (rate 250, evaluated after 15 d): 10
- damage to plant (100=total damage to plant; 0=no damage to plant), IPOHE (rate 500, evaluated after 15 d): 20
- damage to plant (100=total damage to plant; 0=no damage to plant), ORYSA (rate 130, evaluated after 15 d): 0
- damage to plant (100=total damage to plant; 0=no damage to plant), ORYSA (rate 250, evaluated after 15 d): 0
- damage to plant (100=total damage to plant; 0=no damage to plant), ORYSA (rate 500, evaluated after 15 d): 0
- damage to plant (100=total damage to plant; 0=no damage to plant), PANMI (rate 130, evaluated after 15 d): 0
- damage to plant (100=total damage to plant; 0=no damage to plant), PANMI (rate 250, evaluated after 15 d): 0
- damage to plant (100=total damage to plant; 0=no damage to plant), PANMI (rate 500, evaluated after 15 d): 0
- damage to plant (100=total damage to plant; 0=no damage to plant), SETFA (rate 130, evaluated after 15 d): 70
- damage to plant (100=total damage to plant; 0=no damage to plant), SETFA (rate 250, evaluated after 15 d): 70
- damage to plant (100=total damage to plant; 0=no damage to plant), SETFA (rate 500, evaluated after 15 d): 70
- damage to plant (100=total damage to plant; 0=no damage to plant), SIDSP (rate 130, evaluated after 15 d): 0
- damage to plant (100=total damage to plant; 0=no damage to plant), SIDSP (rate 250, evaluated after 15 d): 0
- damage to plant (100=total damage to plant; 0=no damage to plant), SIDSP (rate 500, evaluated after 15 d): 30
- damage to plant (100=total damage to plant; 0=no damage to plant), SORVU (rate 130, evaluated after 15 d): 0
- damage to plant (100=total damage to plant; 0=no damage to plant), SORVU (rate 250, evaluated after 15 d): 0
- damage to plant (100=total damage to plant; 0=no damage to plant), SORVU (rate 500, evaluated after 15 d): 20
